# The source made the active and inactive calls.
# Assays:
# [1] = Luminescence Cell-Based Dose Retest to Confirm Inhibitors of Cancer Stem Cells. [Related pubchem assays (depositor defined):AID2717, AID2721]; type: functional; conditions: Homo sapiens
# [2] = target: T1, Ubiquitin-conjugating enzyme E2 N (Homo sapiens, UniProt P61088); type: functional;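 also: Dose-response confirmation in a TR-FRET assay detecting UBC13-driven polyubiquitin chain formation, inhibition measured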
# T1 sequence (P61088 whole entry): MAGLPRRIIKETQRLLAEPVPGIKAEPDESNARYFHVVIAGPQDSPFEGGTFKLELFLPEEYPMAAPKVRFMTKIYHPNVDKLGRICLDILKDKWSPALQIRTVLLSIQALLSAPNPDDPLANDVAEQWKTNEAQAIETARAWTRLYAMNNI
# [3] = target: T2, Polyadenylate-binding protein 1 (Homo sapiens, UniProt P11940); test: MLLE binding blockers, Cy5 peptide tracer – biochemical, fluorescence polarization, Cy5-PAM2 peptide, secondary, miRNA deadenylation inhibitor project, dose response (AID 602260); type: functional; conditions: read-out: IC50_Mean
# T2 sequence (P11940 whole entry, the tested form may be a part): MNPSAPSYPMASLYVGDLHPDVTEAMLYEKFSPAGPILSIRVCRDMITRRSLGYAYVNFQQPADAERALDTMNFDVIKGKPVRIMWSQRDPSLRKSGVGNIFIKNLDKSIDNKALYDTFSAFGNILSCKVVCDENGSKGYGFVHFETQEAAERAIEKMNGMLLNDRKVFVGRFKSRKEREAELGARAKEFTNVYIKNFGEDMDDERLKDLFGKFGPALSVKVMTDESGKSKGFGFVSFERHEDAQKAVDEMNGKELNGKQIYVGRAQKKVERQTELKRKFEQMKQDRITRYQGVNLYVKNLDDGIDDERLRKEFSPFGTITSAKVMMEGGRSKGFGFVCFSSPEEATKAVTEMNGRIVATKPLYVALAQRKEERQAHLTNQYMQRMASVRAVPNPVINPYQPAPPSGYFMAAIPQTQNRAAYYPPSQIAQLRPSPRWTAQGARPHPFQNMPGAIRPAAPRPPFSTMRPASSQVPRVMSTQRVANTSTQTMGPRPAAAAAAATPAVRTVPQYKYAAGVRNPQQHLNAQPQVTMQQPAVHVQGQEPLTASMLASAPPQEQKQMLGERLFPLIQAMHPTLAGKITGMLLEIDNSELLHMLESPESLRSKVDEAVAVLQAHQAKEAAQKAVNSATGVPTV
# [4] = target: T2, Polyadenylate-binding protein 1; test: MLLE domain peptide-binding blockers, IC50 – biochemical, fluorescence polarization, FITC-PAM2 peptide, dose response (AID 602259); type: functional; conditions: read-out: IC50_Mean
# [5] = target: FAD-linked sulfhydryl oxidase ALR (Homo sapiens, UniProt P55789); test: ALR-catalysed DTT oxidation blockers – biochemical, H2O2 detection, luminescence, cherry-pick, dose response (AID 493248)
# FAD-linked sulfhydryl oxidase ALR, sequence (P55789 whole entry): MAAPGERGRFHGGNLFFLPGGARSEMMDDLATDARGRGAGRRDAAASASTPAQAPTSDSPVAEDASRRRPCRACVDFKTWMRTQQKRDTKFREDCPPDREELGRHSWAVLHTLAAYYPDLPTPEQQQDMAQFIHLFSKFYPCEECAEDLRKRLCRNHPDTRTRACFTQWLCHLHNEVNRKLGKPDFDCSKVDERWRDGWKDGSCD
# Leucine aminopeptidase = target: T3, Leucine aminopeptidase (Plasmodium falciparum 3D7, UniProt Q8IL11); test: P. falciparum M17LAP inhibitors, primary screen, biochemical, fluorogenic H-Leu-NHMec substrate, 1536-well (AID 1619); type: functional
# T3 sequence (Q8IL11 whole entry): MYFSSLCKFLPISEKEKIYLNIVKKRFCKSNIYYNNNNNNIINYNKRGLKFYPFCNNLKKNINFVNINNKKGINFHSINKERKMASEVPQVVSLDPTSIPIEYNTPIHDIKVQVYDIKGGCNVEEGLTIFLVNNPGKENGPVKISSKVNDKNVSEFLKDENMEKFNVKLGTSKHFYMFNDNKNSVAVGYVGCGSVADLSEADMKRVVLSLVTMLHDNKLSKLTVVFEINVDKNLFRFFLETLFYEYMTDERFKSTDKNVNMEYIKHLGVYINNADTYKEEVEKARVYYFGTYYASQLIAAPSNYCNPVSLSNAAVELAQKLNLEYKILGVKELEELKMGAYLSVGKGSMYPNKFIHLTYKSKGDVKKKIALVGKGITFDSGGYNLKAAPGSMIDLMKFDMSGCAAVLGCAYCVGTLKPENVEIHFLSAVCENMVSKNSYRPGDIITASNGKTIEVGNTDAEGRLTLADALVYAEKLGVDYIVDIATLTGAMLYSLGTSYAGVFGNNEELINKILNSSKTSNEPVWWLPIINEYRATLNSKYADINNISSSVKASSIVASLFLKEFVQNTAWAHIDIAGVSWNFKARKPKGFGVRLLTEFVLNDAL
# [6] = target: T4, RNA-binding protein pos-1 (Caenorhabditis elegans, UniProt G5EF15); test: disruptors of C. elegans POS-1 RNA interaction – biochemical, fluorescence polarization, dose response (AID 1964);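 also: purified POS-1 fused to maltose binding protein made in E. coli; potency of compounds blocking POS-1 binding to fluorescent RNA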
# T4 sequence (G5EF15 whole entry): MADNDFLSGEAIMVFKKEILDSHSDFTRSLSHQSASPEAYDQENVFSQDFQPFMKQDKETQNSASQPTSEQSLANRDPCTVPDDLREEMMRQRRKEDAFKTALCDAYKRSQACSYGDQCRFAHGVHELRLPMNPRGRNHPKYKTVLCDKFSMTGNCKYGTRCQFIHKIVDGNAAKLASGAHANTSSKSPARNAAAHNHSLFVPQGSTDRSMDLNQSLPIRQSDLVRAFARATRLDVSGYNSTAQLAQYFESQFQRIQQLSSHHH
# INS1 = test: INS-1E survival protection against cytokine death – cell-based, luminescence, retest, dose response (AID 449756); type: functional; conditions: Rattus norvegicus;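 also: cell death triggered by IL-1 beta plus TNF-alpha plus IFN-gamma mixture; protective hits raise ATP signal compared with cytokine alone wells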
# [7] = HIV-1 AD8 envelope cell-cell fusion blockers – cherry-pick, dose response (AID 652062); type: functional, cell-based;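 also: luciferase signal from cell-cell fusion driven by HIV-1 clade B AD8 Env; potency is for inhibitors of fusion seen as a drop in luminescence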
# [8] = NIH-3T3 fibroblast cytotoxicity, dose response, cytotoxicity control, cell-based, fluorescence, Alamar Blue, secondary assay (AID 2327); type: functional;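 also: NIH-3T3 mouse fibroblasts cultured with fluconazole at 8 µg/mL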
# [9] = fluconazole-exposed Candida albicans growth modulators – fluorescence, retest, confirmation (AID 2467); type: functional, cell-based
# [10] = viability of PTEN-deleted HCT116 cells – cell-based, HCT116 PTEN knockout, dose response (AID 1047); type: functional;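 also: HCT116 colon tumor cells with PTEN knocked out; cells exposed to compound for 60 hours before readout; potency for loss of cell viability measured by luminescence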
# [11] = viability of HCT116 lacking mutant beta-catenin – cell-based, human colon tumor, dose response (AID 1045); type: functional;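 also: HCT116 colon tumor cells with beta catenin knocked out; cells exposed to compound for 60 hours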
# [12] = HEK-293T viability loss after treatment – luminescence, T-cell screen hits, cytotoxicity control for TCR NF-kB inhibitor project, dose response (AID 489026); type: functional, cell-based;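 also: cells exposed to compound about 14 hours before the viability readout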
# P388/ADR = test: cells; type: functional; conditions: Mus musculus
# SN12K1 = test: cells; type: functional; conditions: Homo sapiens
# P388 = test: cells; type: functional; conditions: Mus musculus
# Large T antigen = Large T antigen (Simian virus 40, UniProt P03070); type: functional, Betapolyomavirus macacae;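 also: Confirmatory-stage PubChem screen for compounds that inhibit SV40 T antigen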
# Large T antigen, sequence (P03070 whole entry): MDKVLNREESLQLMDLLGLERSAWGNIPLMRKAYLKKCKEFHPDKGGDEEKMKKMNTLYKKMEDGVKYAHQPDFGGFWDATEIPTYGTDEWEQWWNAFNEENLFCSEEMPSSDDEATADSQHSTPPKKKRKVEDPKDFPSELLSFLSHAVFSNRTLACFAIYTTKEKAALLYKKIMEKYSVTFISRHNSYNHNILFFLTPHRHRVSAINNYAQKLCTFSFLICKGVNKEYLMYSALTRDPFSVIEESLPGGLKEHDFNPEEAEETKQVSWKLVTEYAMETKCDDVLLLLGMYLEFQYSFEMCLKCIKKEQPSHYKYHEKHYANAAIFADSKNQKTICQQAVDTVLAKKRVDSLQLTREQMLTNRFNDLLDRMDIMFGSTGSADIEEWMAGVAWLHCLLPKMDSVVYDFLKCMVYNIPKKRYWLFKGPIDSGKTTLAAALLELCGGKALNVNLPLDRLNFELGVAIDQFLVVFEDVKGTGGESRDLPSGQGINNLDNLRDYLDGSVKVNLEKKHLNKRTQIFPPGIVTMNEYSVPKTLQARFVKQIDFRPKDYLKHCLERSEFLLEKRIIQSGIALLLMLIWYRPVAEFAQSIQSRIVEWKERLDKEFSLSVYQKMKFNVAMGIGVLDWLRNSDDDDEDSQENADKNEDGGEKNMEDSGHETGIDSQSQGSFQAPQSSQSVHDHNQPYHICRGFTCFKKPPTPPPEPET
# [13] = target: T5, Rac GTPase-activating protein 1 (Homo sapiens, UniProt Q9H0H5); test: blockers of MgcRacGAP-driven Rac1 GTP hydrolysis – biochemical, ADP Hunter fluorescence, primary and confirmatory, confirmation (AID 624330); type: functional
# T5 sequence (Q9H0H5 whole entry): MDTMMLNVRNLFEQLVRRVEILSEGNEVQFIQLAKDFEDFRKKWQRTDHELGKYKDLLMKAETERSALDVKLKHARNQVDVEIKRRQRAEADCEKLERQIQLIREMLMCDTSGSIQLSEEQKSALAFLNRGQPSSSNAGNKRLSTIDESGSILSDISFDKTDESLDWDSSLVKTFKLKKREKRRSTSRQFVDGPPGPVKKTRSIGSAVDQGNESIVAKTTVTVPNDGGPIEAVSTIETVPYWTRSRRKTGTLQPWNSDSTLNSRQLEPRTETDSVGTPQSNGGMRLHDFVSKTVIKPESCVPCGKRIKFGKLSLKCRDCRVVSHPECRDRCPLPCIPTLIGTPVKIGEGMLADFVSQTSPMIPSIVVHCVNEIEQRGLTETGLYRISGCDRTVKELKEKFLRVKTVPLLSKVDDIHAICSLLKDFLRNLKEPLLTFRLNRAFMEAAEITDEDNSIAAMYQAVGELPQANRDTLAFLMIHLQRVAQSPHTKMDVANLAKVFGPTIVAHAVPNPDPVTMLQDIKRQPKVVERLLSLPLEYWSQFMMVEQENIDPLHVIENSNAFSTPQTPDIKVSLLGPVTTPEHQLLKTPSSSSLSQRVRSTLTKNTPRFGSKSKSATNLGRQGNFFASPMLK
# [14] = Luminescence Cell-Based Dose Response HTS to Identify Inhibitors of 5'UTR Stem-Loop Driven Prion Protein mRNA Translation in H4 Neuroglioblastoma Cells. [Related pubchem assays: 1827 (Project Summary), 1813 (Primary HTS)]; type: functional
# [15] = reduction of Shn3 3'UTR-driven luciferase in osteoblasts – cell-based, Clone20 osteoblasts, firefly luciferase, cherry-picked, dose response (AID 624132); type: functional;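 also: firefly luciferase luminescence from reporter carrying the Shn3 3'UTR in osteoblasts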
# [16] = loss of viability in HepG2 cells – cell-based, CellTiter-Glo, cherry-picked, cytotoxicity control for Shn3 inhibitor project, dose response (AID 624134); type: functional
# [17] = non-specific 3'UTR reporter inhibition in Clone20-Shn3RL – cell-based, Renilla luciferase, cherry-picked, counter-screen for Shn3 inhibitor project, dose response (AID 624133); type: functional
smiles,measurement,setting,value
COc1ccc(-c2sc3cc4c(cc3c2C#CC2(N)CCCCC2)OCO4)cc1,AC50,[1],1.48 µM (active)
same,IC50,[2],> 20 µM (inactive)
O=C(NC(=S)Nc1cccc(Cl)c1N1CCOCC1)c1cccs1,IC50,[3],> 66 µM (inactive)
same,IC50,[4],> 66 µM (inactive)
COc1cc(O)c(C(CCN2CCCCC2)c2ccc(N(C)C)cc2)c(OC)c1 (stereo unspecified),AC50,[5],1.83 µM (active)
O=C(O)C12CC3CC(C1)CC(n1ncc(NCc4ccccc4)c(Cl)c1=O)(C3)C2,IC50,Leucine aminopeptidase,90 µM (active)
Cc1cc2ncn(-c3ncccc3[N+](=O)[O-])c2cc1C,IC50,[3],> 66 µM (inactive)
same,IC50,[4],> 66 µM (inactive)
CCOc1ccc(NC(=O)C2CC=CCC2C(=O)O)cc1 (stereo unspecified),IC50,Leucine aminopeptidase,10.5 µM (active)
CC(=O)Nc1ccc(S(=O)(=O)NNC(=O)C(=O)NNc2ccccn2)cc1,EC50,[6],> 300 µM (not active)
same,IC50,[2],> 20 µM (inactive)
Cc1ccccc1OCCCCn1cnc2ccccc21,AC50,INS1,6.87 µM (active)
same,AC50,[7],4.16 µM (active)
COc1cc(/C=C/C(=O)Nc2nnc(CC(C)(C)C)s2)cc(OC)c1OC,IC50,[3],> 66 µM (inactive)
same,IC50,[4],> 66 µM (inactive)
Cc1ccccc1C(=O)Nc1nnc(-c2ccc(F)cc2)o1,EC50,[8],> 150 µM (inactive)
same,EC50,[9],1.25 µM (active)
same,EC50,[10],18.4 µM (active)
same,EC50,[11],16.6 µM (active)
CCOc1ccc(NC(=O)CSc2nnc(CCNC(=O)c3ccc(OC)cc3)n2CC)cc1,IC50,Leucine aminopeptidase,8.71 µM (active)
CCN1C(=O)C(=Cc2ccc(C)s2)C(=O)N(CC)C1=S,EC50,[10],9.84 µM (active)
same,EC50,[11],31.9 µM (active)
Cc1oc(C(C)(C)C)cc1C(=O)NC(Cc1ccccc1)C(=O)O (stereo unspecified),IC50,Leucine aminopeptidase,12.7 µM (active)
O=C(Nc1ncc(Cc2ccc(SC(F)F)cc2)s1)c1ccc(OC(F)F)cc1,AC50,[1],< 0.16 µM (active)
same,IC50,[12],> 80 µM (inactive)
COc1ccc(NC(=O)NCCCN2CCN(c3cc(C)ccc3C)CC2)cc1,EC50,[10],10.2 µM (active)
same,EC50,[11],7.42 µM (active)
O=[N+]([O-])c1ccc(S(=O)(=O)Nc2ccc3c(c2)OCCO3)cc1,IC50,[3],> 66 µM (inactive)
same,IC50,[4],> 66 µM (inactive)
Cc1cc(C)c(NC(=O)CN2C(=O)NC3(CCCCC3)C2=O)c(C)c1,IC50,Leucine aminopeptidase,19.5 µM (active)
Cc1ccccc1-c1nc(S(=O)(=O)c2ccccc2)c(N2CCCC2)o1,IC50,[3],> 66 µM (inactive)
same,IC50,[4],> 66 µM (inactive)
Nc1nc(F)nc2c1ncn2C1OC(COP(=O)(O)O)C(O)C1O (stereo unspecified),GI50,P388/ADR,4.22 µM (inactive)
same,GI50,SN12K1,18.1 µM (inactive)
same,GI50,P388,3.24 µM (inactive)
CC1CC(C)CC(C)C(O)/C(C#N)=C/C=C/CC(C2CCCC2C(=O)O)OC(=O)CC(O)C(C)C1 (stereo unspecified),GI50,P388/ADR,< 0.01 µM (active)
same,GI50,SN12K1,< 0.0109 µM (active)
same,GI50,P388,< 0.01 µM (active)
Cc1cc(C)c(C2=NO[C@@H]3[C@H]2C(=O)C=C2N(Cc4ccccc4)CCO[C@@]23O)c(C)c1,GI50,P388/ADR,> 100 µM (inactive)
same,GI50,SN12K1,> 100 µM (inactive)
same,GI50,P388,> 100 µM (inactive)
CC1CC=CC(O)C1 (stereo unspecified),GI50,P388/ADR,> 100 µM (inactive)
same,GI50,SN12K1,> 100 µM (inactive)
same,GI50,P388,55 µM (inactive)
CCN(CC)CCOC(=O)Cc1cccc2c(=O)cc(-c3ccccc3)oc12,GI50,P388/ADR,122 µM (inactive)
same,GI50,SN12K1,24.7 µM (inactive)
same,GI50,P388,206 µM (inactive)
CN(C)CCNC(=O)c1ccc(Cl)c2ccc(-c3ccccc3)nc12,GI50,P388/ADR,1.95 µM (inactive)
same,GI50,SN12K1,2.28 µM (inactive)
same,GI50,P388,1.13 µM (inactive)
COCC1N=C(c2cc(OC)c(OC)c(OC)c2-c2cc3c(cc2[C@@H](C)O)OCO3)O[C@H]1c1ccccc1 (stereo partly specified),GI50,P388/ADR,> 100 µM (inactive)
same,GI50,SN12K1,55.5 µM (inactive)
same,GI50,P388,64.3 µM (inactive)
COc1cc(C2c3cc4c(cc3[C@@H](Nc3cccc([N+](=O)[O-])c3)C3COC(=O)[C@H]23)OCO4)cc(OC)c1O (stereo partly specified),GI50,P388/ADR,0.783 µM (active)
same,GI50,SN12K1,0.589 µM (active)
same,GI50,P388,< 0.0193 µM (active)
Cn1c(=O)c2c(nc(N/N=C/c3ccncc3)n2Cc2ccccc2)n(C)c1=O,AC50,[5],0.628 µM (active)
COc1cc(/C=N\NC(=O)c2ccc(Cn3nc([N+](=O)[O-])c(Cl)c3C)o2)ccc1O,IC50,Large T antigen,32.7 µM (active)
same,IC50,[13],30.5 µM (active)
COc1cc(/C=N/N(C)c2ccccc2)ccc1O,IC50,Large T antigen,8.47 µM (active)
same,IC50,[13],15.6 µM (active)
N#CC(c1ccc(Cl)cc1)c1ccc2c(C(F)(F)F)cc(C(F)(F)F)nc2n1 (stereo unspecified),EC50,[14],8.03 µM (active)
same,EC50,[10],0.349 µM (active)
same,EC50,[11],0.321 µM (active)
same,AC50,INS1,0.54 µM (active)
same,AC50,[15],0.487 µM (active)
same,AC50,[16],2.97 µM (active)
same,AC50,[17],1.38 µM (active)
C[C@@H](CN1CC(=O)NC(=O)C1)N1CC(=O)NC(=O)C1 [DEXRAZOXANE],GI50,P388/ADR,394 µM (inactive)
same,GI50,SN12K1,24.2 µM (inactive)
same,GI50,P388,49.3 µM (inactive)

# Source: ChEMBL document CHEMBL1201862, “PubChem BioAssay data set” (2004)
